Measured values published in ChEMBL document CHEMBL1153102, “Synthesis and antiproliferative activity of pyrrolo[3,2-b]pyridine derivatives against melanoma” (Bioorg Med Chem Lett, 2010).

Key:
HS27 = assay: Cytotoxicity against human HS27 cells by MTT assay; type: cell-based
[1] = Cytotoxicity against human A375P cells by MTT assay; type: functional, cell-based

Q: What does the source list for `COC(=O)c1ccc2c(ccn2-c2ccc(NC(=O)c3cc(N4CCOCC4)cc(C(F)(F)F)c3)cc2)n1`?
A: IC50 (HS27): > 10 µM; IC50 [1]: > 10 µM

Q: For `O=C(Nc1ccc(-n2ccc3nc(C(=O)NCc4ccccc4)ccc32)cc1)c1ccc(Cl)c(C(F)(F)F)c1`, which IC50 (HS27) is on record?
A: 1.5 µM

Q: And the IC50 [1]?
A: 0.7 µM

Q: What does the source list for `NC(=O)c1ccc2c(ccn2-c2ccc(NC(=O)Nc3ccc(Cl)c(Cl)c3)cc2)n1`?
A: IC50 (HS27): 6.6 µM; IC50 [1]: 3.2 µM

Q: For `NC(=O)c1ccc2c(ccn2-c2ccc(NC(=O)Nc3ccc(Cl)c(C(F)(F)F)c3)cc2)n1`, which IC50 (HS27) is on record?
A: > 10 µM

Q: And the IC50 [1]?
A: 9.9 µM

Q: For `O=C(Nc1ccc(-n2ccc3nc(C(=O)NCc4ccccc4)ccc32)cc1)c1cccc(C(F)(F)F)c1`, which IC50 (HS27) is on record?
A: > 10 µM

Q: And the IC50 [1]?
A: 3 µM

Q: Which results are given for `COC(=O)c1ccc2c(ccn2-c2ccc(NC(=O)Nc3ccc(Cl)c(Cl)c3)cc2)n1`?
A: IC50 (HS27): 2.8 µM; IC50 [1]: 3.8 µM

Q: With `COC(=O)c1ccc2c(ccn2-c2ccc(NC(=O)c3ccc(Cl)c(C(F)(F)F)c3)cc2)n1` as the compound, how does the IC50 (HS27) read?
A: 2.9 µM

Q: And the IC50 [1]?
A: 3 µM

Q: Which IC50 (HS27) does the source give for `O=C(Nc1ccc(-n2ccc3nc(C(=O)NCc4ccccc4)ccc32)cc1)c1cc(N2CCOCC2)cc(C(F)(F)F)c1` here?
A: > 10 µM

Q: And the IC50 [1]?
A: > 10 µM

Q: Which IC50 (HS27) does the source give for `O=C(Nc1ccc(-n2ccc3nc(C(=O)NCc4ccccc4)ccc32)cc1)c1ccc(N2CCOCC2)c(C(F)(F)F)c1` here?
A: 2.6 µM

Q: What about the IC50 [1] of the same compound?
A: 0.9 µM

Q: For `COC(=O)c1ccc2c(ccn2-c2ccc(NC(=O)c3ccc(N4CCOCC4)c(C(F)(F)F)c3)cc2)n1`, which IC50 (HS27) is on record?
A: > 10 µM

Q: What about the IC50 [1] of the same compound?
A: 9.8 µM

Q: What does the source list for `COC(=O)c1ccc2c(ccn2-c2cccc(NC(=O)c3ccc(Cl)c(C(F)(F)F)c3)c2)n1`?
A: IC50 (HS27): > 10 µM; IC50 [1]: > 10 µM

Q: With `COC(=O)c1ccc2c(ccn2-c2ccc(NC(=O)Nc3ccc(Cl)c(C(F)(F)F)c3)cc2)n1` as the compound, how does the IC50 (HS27) read?
A: 8.2 µM

Q: What about the IC50 [1] of the same compound?
A: 3.6 µM

Q: Which IC50 (HS27) does the source give for `O=C(Nc1ccc(-n2ccc3nc(C(=O)NCc4ccccc4)ccc32)cc1)Nc1cccc(Cl)c1Cl` here?
A: > 10 µM

Q: And the IC50 [1]?
A: > 10 µM

Q: What does the source list for `NC(=O)c1ccc2c(ccn2-c2ccc(NC(=O)Nc3cccc(Cl)c3Cl)cc2)n1`?
A: IC50 (HS27): 9.8 µM; IC50 [1]: 4.6 µM

Q: Which IC50 (HS27) does the source give for `COC(=O)c1ccc2c(ccn2-c2ccc(NC(=O)Nc3cccc(Cl)c3Cl)cc2)n1` here?
A: > 10 µM

Q: And the IC50 [1]?
A: 6.4 µM

Q: Which IC50 (HS27) does the source give for `COC(=O)c1ccc2c(ccn2-c2cccc(NC(=O)Nc3cccc(C(F)(F)F)c3)c2)n1` here?
A: > 10 µM

Q: What about the IC50 [1] of the same compound?
A: > 10 µM

Q: Which IC50 (HS27) does the source give for `NC(=O)c1ccc2c(ccn2-c2ccc(NC(=O)c3cccc(C(F)(F)F)c3)cc2)n1` here?
A: > 10 µM

Q: What about the IC50 [1] of the same compound?
A: > 10 µM

Q: For `O=C(Nc1ccc(-n2ccc3nc(C(=O)NCc4ccccc4)ccc32)cc1)Nc1ccc(Cl)c(C(F)(F)F)c1`, which IC50 (HS27) is on record?
A: 3 µM

Q: What about the IC50 [1] of the same compound?
A: 1.1 µM

Q: Which results are given for `O=C(Nc1ccc(-n2ccc3nc(C(=O)NCc4ccccc4)ccc32)cc1)Nc1cccc(C(F)(F)F)c1`?
A: IC50 (HS27): > 10 µM; IC50 [1]: 7.9 µM

Q: Which IC50 (HS27) does the source give for `COC(=O)c1ccc2c(ccn2-c2cccc(NC(=O)Nc3ccc(Cl)c(C(F)(F)F)c3)c2)n1` here?
A: > 10 µM

Q: What about the IC50 [1] of the same compound?
A: 9.5 µM

Q: With `NC(=O)c1ccc2c(ccn2-c2ccc(NC(=O)c3ccc(Cl)c(C(F)(F)F)c3)cc2)n1` as the compound, how does the IC50 (HS27) read?
A: > 10 µM

Q: And the IC50 [1]?
A: 8.9 µM

Q: Which IC50 (HS27) does the source give for `COC(=O)c1ccc2c(ccn2-c2ccc(NC(=O)c3cccc(C(F)(F)F)c3)cc2)n1` here?
A: 9.8 µM

Q: What about the IC50 [1] of the same compound?
A: 9.5 µM

Q: Which IC50 (HS27) does the source give for `COC(=O)c1ccc2c(ccn2-c2cccc(NC(=O)c3cccc(C(F)(F)F)c3)c2)n1` here?
A: > 10 µM

Q: What about the IC50 [1] of the same compound?
A: > 10 µM

Q: With `CNC(=O)c1cc(Oc2ccc(NC(=O)Nc3ccc(Cl)c(C(F)(F)F)c3)cc2)ccn1` [SORAFENIB] as the compound, how does the IC50 [1] read?
A: 5.6 µM
